For 42 molecules, melting point results are on record in patent US6897219B2, “Heteroaryl diazacycloalkanes, their preparation and use” (priority 1997, dated 2005).

Counter-ions that a name gives are not always drawn.

For orientation: melting point means the temperature, or range, at which the solid turns liquid. For the molecule `CN1CCCN(c2ccc(-c3ccccc3)nn2)CC1` (as salt: fumaric acid salt), the melting point was in the range of 185 to 186 °C.
To `Clc1nc2ccccc2nc1N1CCCNCC1` (as salt: fumaric acid salt) belongs 136.2 to 139.9 °C; to `Clc1ccc(N2CCCNCC2)cn1`, 165 to 167 °C.
To `c1cncc(N2CCNCC2)c1` (as salt: fumaric acid salt) [Compound 1B, 1-(3-Pyridyl)-piperazine] belongs 161.7 to 164.8 °C; to `CC(C)COc1cncc(N2CCCN(C)CC2)c1` (as salt: fumaric acid salt) [Compound 8E, 4-Methyl-1-[5-(2-methyl-propyloxy)-3-pyridyl]-homopiperazine], 145.7 to 146.9 °C.
The same measure for `CCCOc1cncc(N2CCCNCC2)c1` (as salt: fumaric acid salt) [Compound 10H, 1-(5-Propyloxy-3-pyridyl)-homopiperazine]: 156.2 to 157.8 °C; for `C=COc1cncc(N2CCCNCC2)c1` (as salt: fumaric acid salt): 143 to 144 °C; for `CCOCCOc1cncc(N2CCCNCC2)c1` (as salt: fumaric acid salt): 139.3 to 140.4 °C.
For `COc1cncc(N2CCCN(C)C2)c1` (as salt: fumaric acid salt) [Compound 2M, 1-(5-Methoxy-3-pyridyl)-3-methyl-1,3-diazacyclohexane], the melting point lay in the range of 149 to 151 °C.
The same measure for `COc1cc(N2CCCNCC2)cnc1OC` (as salt: fumaric acid salt): 150 to 152 °C; for `c1ncc(N2CCCNCC2)cc1OCC1CC1` (as salt: fumaric acid salt) [Compound 9H, 1-(5-Cyclopropylmethoxy-3-pyridyl)-homopiperazine]: 154 to 156 °C.
The same measure for `CCOc1cncc(N2CCCNCCC2)c1` (as salt: fumaric acid salt): 162.5 to 164.5 °C.
To `Cc1cnc(C)c(N2CCCNCC2)n1` (as salt: fumaric acid salt) belongs 149 to 151 °C; to `c1ccc2c(c1)ccn2-c1cncc(N2CCCNCC2)c1` (as salt: fumaric acid salt), 193 to 195 °C.
`CC(C)CCOc1cncc(N2CCCNCC2)c1` (as salt: fumaric acid salt) yielded a melting point of 139.9 to 142 °C.
In the case of `c1ccc(-c2ccc(N3CCCNCC3)nn2)cc1` (as salt: fumaric acid salt), the melting point was 187 to 189 °C.
`CN1CCCN(c2cncc(OCC3CCCCC3)c2)CC1` (as salt: fumaric acid salt) [Compound 14E, 1-(5-Cyclohexylmethoxy-3-pyridyl)-4-methyl-homopiperazine]: the melting point was 160.4 to 162 °C.
In turn, `CN1CCCN(c2ccc(Cl)nn2)CC1` (as salt: fumaric acid salt) showed a melting point of 171 to 172 °C.
For the molecule `CCOc1cncc(N2CCCNCC2)c1` (as salt: fumaric acid salt) [Compound 3H, 1-(5-Ethoxy-3-pyridyl)-homopiperazine], the melting point lay in the range of 157.5 to 159 °C.
The same measure for `c1cc(N2CCCC2)ncc1N1CCCNCC1` (as salt: fumaric acid salt): 148.6 to 150.5 °C.
The same measure for `COc1cccc(N2CCCNCC2)c1` (as salt: fumaric acid salt): 164.1 to 165.7 °C; for `CCCCCCCOc1cncc(N2CCCN(C)CC2)c1` (as salt: fumaric acid salt) [Compound 16E, 1-(5-Heptyloxy-3-pyridyl)-4-methyl-homopiperazine]: 120.2 to 121.8 °C; for `Oc1cccc(N2CCCNCC2)c1` (as salt: fumaric acid salt): 165 °C (dec.).
The same measure for `C=COc1cncc(N2CCCNCCC2)c1` (as salt: fumaric acid salt): 142 to 144 °C; for `Cc1ccc(N2CCCN(C)CC2)nn1` (as salt: fumaric acid salt): 152 to 153 °C.
The molecule `CCCCCCOc1cncc(N2CCCNCC2)c1` (as salt: fumaric acid salt) yielded a melting point of 149.5 to 151.8 °C.
To `O=[N+]([O-])c1cccc(N2CCCNCC2)c1` (as salt: fumaric acid salt) belongs 163.1 to 164.4 °C; to `Clc1ccc(N2CCCNCCC2)nn1` (as salt: fumaric acid salt) [Compound 7B, 1-(6-Chloro-3-pyridazinyl)-1,5-diazacyclooctane], 176 to 178 °C.
To `Clc1cncc(N2CCNCC2)c1` (as salt: fumaric acid salt) [Compound 4B, 1-(5-Chloro-3-pyridyl)-piperazine] belongs 195 to 196 °C; to `CN1CCCN(c2cccc([N+](=O)[O-])c2)CC1`, 163.1 to 164.4 °C; to `C/C=C/Oc1cncc(N2CCCN(C)CC2)c1` (as salt: fumaric acid salt) [Compound 17E, trans-4-Methyl-1-(5-propyl-1-en-oxy-3-pyridyl)-homopiperazine], 126 to 128 °C.
With `CC(C)CCOc1cncc(N2CCCN(C)CC2)c1` (as salt: fumaric acid salt) [Compound 12E, 4-Methyl-1-[5-(3-methyl-butoxy)-3-pyridyl]-homopiperazine], the melting point was in the range of 130.4 to 131.9 °C.
`Clc1ccc(N2CCCCNCC2)nn1` (as salt: fumaric acid salt) [Compound 8B, 1-(6-Chloro-3-pyridazinyl)-1,4-diazacyclooctane]: the melting point was in the range of 177 to 179 °C.
Molecule `Clc1ccc(N2CCCNCC2)nn1` (as salt: fumaric acid salt) [Compound 1K, 1-(6-Chloro-3-pyridazinyl)-homopiperazine] yielded a melting point of 165 to 166 °C.
With `CCCCCOc1cncc(N2CCCNCC2)c1` (as salt: fumaric acid salt), the melting point was 155.5 to 156.7 °C.
To `CC1CCN(c2ccc(Cl)nn2)CCCN1` (stereo not drawn) (as salt: fumaric acid salt) belongs 166 to 168 °C; to `c1ccc2c(N3CCCNCC3)cncc2c1` (as salt: fumaric acid salt), 160 to 162 °C.
Turning to `CCCCOc1cncc(N2CCNCC2)c1` (as salt: fumaric acid salt) [Compound 2D, 1-(5-Butoxy-3-pyridyl)piperazine], the melting point was 149.4 to 151.7 °C.
Molecule `CN1CCCN(c2cncc(OCC3CC3)c2)CC1` (as salt: fumaric acid salt) [Compound 9E, 1-(5-Cyclopropylmethoxy-3-pyridyl)-4-methyl-homopiperazine] gave a melting point of 160.4 to 161.9 °C.
On to `CCCCCCOc1cncc(N2CCCN(C)CC2)c1` (as salt: fumaric acid salt) [Compound 11E, 1-(5-Hexyloxy-3-pyridyl)-4-methyl-homopiperazine], for which the melting point was 128.7 to 130.8 °C.
`COCCOc1cncc(N2CCCNCC2)c1` (as salt: fumaric acid salt) [Compound 5H, 1-(5-Methoxyethoxy-3-pyridyl)-homopiperazine] displayed a melting point of 126 to 127 °C.
The same measure for `c1ccc(-c2cncc(N3CCNCC3)c2)cc1` (as salt: fumaric acid salt): 167.5 to 168.5 °C.
